Patent US20250381121A1, “COMPOSITION FOR PERSONAL CARE PRODUCTS” (VAGINAL BIOME SCIENCE, INC., priority 2024, published 2025)
Like-named read-outs stand apart in the source and are kept apart here.

Columns and labels:
[1] = test system: herpes simplex virus (HSV-2); details: cited from earlier work
Lactobacillus crispatus = experiment: Growth of Lactobacillus crispatus with UV-irradiated acemannan over 24 hours; assay type: cell-based
Experimental: Growth media contained Dextrose-Free Sharpe (MRS) broth and Lactobacilli MRS Agar or an equivalent. Extract of irradiated aloe vera was further added to the MRS broth at 0.1 and 0.3% (w/v). A predetermined number of bacteria was added to each of the prepared medium and cultured at 37° C. under a suitable condition for the organism to be tested (anaerobic conditions for L. crispatus and L. gasseri). A small portion of the culture was removed at 2, 4, 6, 8, 12, 14, 16, 18, and 24 hours of culture. At each time point, collected samples containing the growing organisms are plated to quantify the live cell number.
The cell growth of Lactobacillus crispatus and Lactobacillus gasseri was determined by serial dilutions and plating to determine the bacterial counts at designated time points during the 24-h study period. Plates were cultured at 37° C. under a suitable condition for the organism to be tested (anaerobic conditions for L. crispatus and L. gasseri). Bacterial colonies were quantified at 0 and 16 hours after incubation.
The experiments were carried out using the method described above for EXAMPLE 4. Lactobacillus crispatus was cultured in the presence of varying concentrations (0.1%, 0.2%, 0.3%, 0.5%) of UV-irradiated acemannan or a negative control over a 24-hour period. Bacterial growth was quantified at 10 time points (0-24 hours) using log-scaled CFU/mL equivalents.

In the case of CCCCCCCCCCCC(=O)OCC(O)CO (stereo not drawn) [glycerol monolaurate (GML), glycerol monolaurate], the “susceptibility to herpes simplex virus (HSV-2)” value (“susceptibility” below) ([1]; 5% as a colloidal suspension in phosphate buffered saline, single exposure) is given as “markedly increased” and the “susceptibility” value ([1]; 5% formulated in K-Y Warming Jelly, single exposure) is given as “markedly increased”.

In the case of CC(O)CO (stereo not drawn) [propylene glycol], the “susceptibility” value ([1]; in vivo) is given as “markedly increased”.

With acemannan the “enhancement of L. crispatus growth compared with negative control” value (Lactobacillus crispatus; 0.3% acemannan, at 10 hours (p<0.05)) was “significant enhancement of growth” and the “stimulation of L. crispatus growth over negative control” value (Lactobacillus crispatus; 0.5% acemannan, significant at 6, 8, 10 and 18 hours (p<0.05)) was “most robust and consistent stimulation”.

For “polyethylene glycol [polyethylene glycol (PEG-8)]”, the “susceptibility” value ([1]; in vivo) is listed as “markedly increased”.
